For experiment [1], the target named is T1, Kappa-type opioid receptor (Homo sapiens, UniProt P41145). Briefly: Agonist activity at human kappa opioid receptor expressed in CHO cells assessed as stimulation of [35S]GTPgammaS binding.
Experiment [2] concerns the target T1, Kappa-type opioid receptor. Description: Antagonist activity against human kappa opioid receptor expressed in CHO cells assessed as inhibition of U50488-stimulated [35S]GTPgammaS binding. On the technique in general: Binding of GTPγS marks nucleotide exchange on a G protein.
In experiment [3] the target is T2, Delta-type opioid receptor (Homo sapiens, UniProt P41143). Description: biochemical.
Description: Agonist activity at human delta opioid receptor expressed in CHO cells assessed as stimulation of [35S]GTPgammaS binding
Experiment [4] has as its target T3, Mu-type opioid receptor (Homo sapiens, UniProt P35372). Description: biochemical.
Experiment [5] concerns the target T2, Delta-type opioid receptor. Briefly: biochemical. The source holds these as a separate data set.
Experiment [6] concerns the target T1, Kappa-type opioid receptor. The conditions noted are these: CHO, 10 uM.
Experiment [7] deals with T3, Mu-type opioid receptor. Description: biochemical. The source holds these as a separate data set.
Experiment [8] concerns the target T2, Delta-type opioid receptor. Description: biochemical. This is another data set of the same source.
Experiment [9] deals with T3, Mu-type opioid receptor. Description: biochemical. The source holds these as a separate data set.
Description: Agonist activity at human mu opioid receptor expressed in CHO cells assessed as stimulation of [35S]GTPgammaS binding
The target in experiment [10] is T1, Kappa-type opioid receptor. Briefly: Displacement of [3H]U69,593 from human kappa opioid receptor expressed in CHO cells after 60 mins by scintillation counting. For orientation: In a radioligand displacement assay an active substance lowers the binding of a labelled ligand.
The target in experiment [11] is T3, Mu-type opioid receptor. The conditions noted are these: CHO, 10 uM.

T2 sequence (P41143 whole entry): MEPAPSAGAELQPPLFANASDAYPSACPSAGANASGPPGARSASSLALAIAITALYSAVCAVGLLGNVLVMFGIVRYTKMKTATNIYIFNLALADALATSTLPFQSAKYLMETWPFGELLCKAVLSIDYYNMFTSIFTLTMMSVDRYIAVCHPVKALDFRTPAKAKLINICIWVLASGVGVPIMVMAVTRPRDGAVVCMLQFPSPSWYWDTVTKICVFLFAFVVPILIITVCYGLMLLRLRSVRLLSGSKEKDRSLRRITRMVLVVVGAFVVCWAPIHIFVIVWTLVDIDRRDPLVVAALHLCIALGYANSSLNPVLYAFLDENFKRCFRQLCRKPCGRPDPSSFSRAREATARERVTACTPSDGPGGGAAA
T1 sequence (P41145 whole entry): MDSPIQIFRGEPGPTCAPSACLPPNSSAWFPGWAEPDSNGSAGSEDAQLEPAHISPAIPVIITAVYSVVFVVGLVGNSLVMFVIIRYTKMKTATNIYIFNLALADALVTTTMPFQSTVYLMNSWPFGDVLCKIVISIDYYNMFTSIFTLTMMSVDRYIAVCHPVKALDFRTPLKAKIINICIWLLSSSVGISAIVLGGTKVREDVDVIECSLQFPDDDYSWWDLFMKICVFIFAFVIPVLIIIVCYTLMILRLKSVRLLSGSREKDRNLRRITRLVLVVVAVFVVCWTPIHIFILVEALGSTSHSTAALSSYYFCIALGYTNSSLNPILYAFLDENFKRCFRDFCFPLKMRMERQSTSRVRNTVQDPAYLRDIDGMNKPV
T3 sequence (P35372 whole entry): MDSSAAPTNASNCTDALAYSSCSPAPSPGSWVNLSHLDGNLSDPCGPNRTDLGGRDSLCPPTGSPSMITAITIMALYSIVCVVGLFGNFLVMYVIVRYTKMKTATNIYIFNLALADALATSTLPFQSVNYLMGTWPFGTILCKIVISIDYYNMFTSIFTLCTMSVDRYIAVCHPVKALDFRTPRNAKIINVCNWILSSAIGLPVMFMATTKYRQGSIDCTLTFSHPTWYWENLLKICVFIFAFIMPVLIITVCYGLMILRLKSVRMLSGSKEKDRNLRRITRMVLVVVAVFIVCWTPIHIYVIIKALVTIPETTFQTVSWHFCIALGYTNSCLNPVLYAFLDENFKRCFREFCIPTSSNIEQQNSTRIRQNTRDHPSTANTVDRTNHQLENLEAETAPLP

With `NC(=O)c1ccc2c(c1O)[C@]13CCN(CC4CC4)[C@H](C2)[C@]1(O)CCC(=O)C3`, the results for the EC50 in [1] and in experiment [3] were 3.3 nM and 1.8 nM, respectively. The IC50 (commonly the concentration that inhibits the measured activity by half) in [2] came out at 38 nM; in experiment [4] it was 0.88 nM; in [5], 6.9 nM.

In turn, `NC(=O)c1ccc2c(c1O)[C@]13CCN(CC4CCC4)[C@H](C2)[C@]1(O)CC[C@@H](O)C3` showed an Imax in experiment [6] of 25%. In addition, the EC50 (commonly the concentration that produces a half-maximal response) in experiment [3] turned out to be 3.7 nM. In experiment [5], the IC50 was 130 nM.

In the case of `C[N+]1(CC2CC2)CC[C@]23c4c5ccc(C(N)=O)c4O[C@H]2C(=O)CC[C@@]3(O)[C@H]1C5` (stereo partly specified), the Ki (usually a dissociation constant, usually derived from enzyme kinetics or from competition with a known ligand) is 37 nM in experiment [7] and over 10000 nM in experiment [8].

`NC(=O)c1ccc2c3c1O[C@H]1C(=O)CC[C@@]4(O)[C@@H](C2)N(CC2CC2)CC[C@]314` came in with a concentration giving a half-maximal response (EC50) in experiment [9] of 4.9 nM. The compound also yielded a half-maximal inhibitory concentration (IC50) in experiment [4] of 270 nM.

`C[N+]1(CC2CC2)CC[C@]23c4c5ccc(O)c4O[C@H]2C(=O)CC[C@@]3(O)[C@H]1C5` (stereo partly specified) [NALTREXONE METHIODIDE]: the EC50 in experiment [1] is 9 nM. Further, the Imax in experiment [6] amounted to 60%. Moreover, the IC50 in [4] was 170 nM.

For the compound `CN1CC[C@]23c4c5ccc(C(N)=O)c4O[C@H]2C(=O)CC[C@H]3[C@H]1C5`, the figures for the Ki in [7] and in [8] were 1.2 nM and 260 nM, respectively. In addition, a half-maximal response in [9] (EC50) required 110 nM.

In the case of `NC(=O)c1ccc2c(c1O)[C@@]13CCCC[C@@]1(O)[C@@H](C2)N(CC1CC1)CC3`, in experiment [1], the EC50 worked out at 2.3 nM. Moreover, the IC50 turned out to be 57 nM in experiment [2] and 5.8 nM in experiment [5].

With `NC(=O)c1ccc2c3c1O[C@H]1c4[nH]c5ccccc5c4C[C@@]4(O)[C@@H](C2)N(CC2CC2)CC[C@]314`, the results for the Ki in [10], in experiment [7] and in [8] were 47 nM, 46 nM and 0.3 nM, respectively. In [5], half-maximal inhibition (IC50) required 0.77 nM.

Regarding `CN1CC[C@]23CC(=O)CC[C@H]2[C@H]1Cc1ccc(C(N)=O)c(O)c13`, the values for the Ki in [10], in experiment [7] and in experiment [8] were 2.3 nM, 0.3 nM and 8.3 nM, respectively. Further, the EC50 in experiment [1] worked out at 3.9 nM; in experiment [9], 1.6 nM.

Turning to `Oc1ccc2c3c1O[C@H]1CCC[C@@]4(O)[C@@H](C2)N(CC2CC2)CC[C@]314`, the Ki was determined as 0.24 nM in experiment [10], 0.24 nM in experiment [7] and 79 nM in experiment [8]. Further, the IC50 amounted to 13 nM in [2] and 4.4 nM in [4].

As for `NC(=O)c1ccc2c(c1O)[C@]13CCN(CC4CCC4)[C@H](C2)[C@]1(O)CC[C@H](O)C3`, the Imax in [6] came to 36%.

As to `NC(=O)c1ccc2c3c1O[C@H]1CCC[C@@]4(O)[C@@H](C2)N(CC2CC2)CC[C@]314`, the Ki in [10] is 16 nM; in experiment [7], 2.5 nM; in experiment [8] it was 630 nM. Further, in experiment [4], the IC50 was 54 nM.

Turning to `NC(=O)c1ccc2c(c1O)[C@]13CCN(CC4CC4)[C@H](C2)[C@]1(O)Cc1c([nH]c2ccccc12)C3`, the Ki in experiment [10] was 0.81 nM; in experiment [7] it was 0.51 nM; in [8] it was 0.025 nM. Moreover, the IC50 in experiment [2] came to 28 nM; in experiment [5], 0.08 nM.

On to `NC(=O)c1ccc2c3c1O[C@H]1[C@@H](O)CC[C@@]4(O)[C@@H](C2)N(CC2CCC2)CC[C@]314`, for which the Imax in experiment [11] is 56%.

The values are drawn from ChEMBL document CHEMBL1153960, “Syntheses of novel high affinity ligands for opioid receptors” (Bioorg Med Chem Lett, 2009).
